Experimental data from patent US20060173066A1, “Remedy for diabetes” (Kyowa Hakko Kogyo Co., Ltd., priority 2003, published 2006).

Columns and labels:
[1] = tested on: KK-Ay/Ta Jcl mice of a type 2 diabetic model; test: Example 2: serum-insulin level after 18 hours fasting in mice fed CE-2 feed with 1% by weight of test substance; assay type: in vivo; settings: for Serum-Insulin Level: 11th day after 18 hours fasting, mean ± standard error, n=5
Excerpt: (§1) KK-Ay/Ta Jcl mice (Clea Japan, Inc.; male;,six weeks age) (15 mice) of a type 2 diabetic model were divided into three groups each comprising five mice and named group 1 to group 3.
(§2) The mice of the groups 1 to 3 were made free to take feed and water. A commercially available feed CE-2 (manufactured by Clea Japan, Inc.) was ingested to the mice of group 1. CE-2 to which 1% by weight of trans-4-hydroxy-L-proline ethyl ester (manufactured by Sanyo Chemical Laboratory Co., Ltd.; hereinafter, abbreviated as hydroxyproline ethyl ester) was added was ingested to the mice of group 2. CE-2 to which 1% by weight of trans-N,O-diacetyl-4-hydroxy-L-proline oleyl ester (manufactured by Nissei Kagaku; hereinafter, abbreviated as diacetylhydroxyproline oleyl ester) was added was ingested to the mice of group 3.
(§3) On the initial day of the test and on the 10th day thereafter, blood was collected from tail vein and blood-sugar level upon non-fasting was measured by a Medisafe Reader GR-101. The mice were fasted for 18 hours during the 10th day to the 11th day after the start of the test and whole blood was collected from descending vena cava to prepare serum. The serum-insulin level was measured by a Levi Insulin Kit Mouse-T. The value was shown by mean value±standard error (n=5) and statistic ratio of risk (p value) was determined by a t-test. With regard to the ingested amounts during the test periods, there was no significant difference among the groups 1 to 3.

[2] = tested on: KK-Ay/Ta Jcl mice of a type 2 diabetic model; test: Example 2: non-fasting blood-sugar level in mice fed CE-2 feed with 1% by weight of test substance; assay type: in vivo; settings: for antidiabetic action (conclusion from Table 3): 10 days; for Blood-Sugar Level, 10th Day of the Test / Blood-Sugar Level, Initial Day of the Test: non-fasting, tail vein blood, mean ± standard error, n=5; for Blood-Sugar Level, Initial Day of the Test: initial day (baseline)
Excerpt: as §1, §2, §3

[3] = tested on: KK-Ay/Ta Jcl mice of a type 2 diabetic model; test: Example 1: non-fasting blood-sugar level in mice fed CE-2 feed with 1% by weight of test substance; assay type: in vivo
Excerpt: (§4) KK-Ay/Ta Jcl mice (Clea Japan, Inc.; male; six weeks age) (15 mice) of a type 2 diabetic model were divided into three groups each comprising five mice and named group 1 to group 3.
(§5) The mice of the groups 1 to 3 were made free to take feed and water. A commercially available feed CE-2 (manufactured by Clea Japan, Inc.) was ingested to the mice of group 1. CE-2 to which 1% by weight of trans-4-hydroxy-L-proline (manufactured by Kyowa Hakko Kogyo; hereinafter, abbreviated as hydroxyproline) was added was ingested to the mice of group 2. CE-2 to which 1% by weight of trans-N-acetyl-4-hydroxy-L-proline (manufactured by Kyowa Hakko Kogyo; hereinafter, abbreviated as N-acetylhydroxyproline) was added was ingested to the mice of group 3.
as §3, with “17th” for “10th”, “GR-101 (manufactured by Thermo Co.).” for “GR-101.”, “18th” for “11th”, “Mouse-T (manufactured by Shibayagi).” for “Mouse-T.”

[4] = tested on: KK-Ay/Ta Jcl mice of a type 2 diabetic model; test: Example 1: serum-insulin level after 18 hours fasting in mice fed CE-2 feed with 1% by weight of test substance; assay type: in vivo
Excerpt: as §4, §5
as §3, with “17th” for “10th”, “GR-101 (manufactured by Thermo Co.).” for “GR-101.”, “18th” for “11th”, “Mouse-T (manufactured by Shibayagi).” for “Mouse-T.”

[5] = tested on: KK-Ay/Ta Jcl mice of a type 2 diabetic model; test: Example 3: blood-sugar level after oral glucose load in fasted mice; assay type: in vivo; settings: 1 g/kg B.W. oral
Protocol: KK-Ay/Ta Jcl mice (Clea Japan, Inc.; male; six weeks age) (16 mice) of a type 2 diabetic model were divided into 2 groups each comprising 8 mice and named group 1 and group 2.
After fasting for 18 hours, a physiological saline solution was orally administered to the mice of the group 1 while, to the mice of the group 2, 1 g/kg body weight (hereinafter, referred to as “B.W.”) of a 20% (w/v) aqueous solution of the N-acetylhydroxyproline (dissolved in a physiological saline solution) was orally administered. After 1 hour, 2 g/kg B.W. of a 40% (w/v) aqueous solution of glucose was orally administered to the mice of the groups 1 and 2 to load with sugar. Blood was collected from tail vein 60 minutes before (−60 minutes) administration of the aqueous glucose solution, upon the administration (0 minute) and 30 and 120 minutes after the administration and blood-sugar levels were measured by a Medisafe Reader GR-101. The value was shown by mean value±standard error (n=8) and statistic ratio of risk (p value) was determined by a t-test.

[6] = tested on: C2C12 cells; test: Example 6: consumption of glucose of differentiated C2C12 cells (glucose concentration in supernatant); assay type: cell-based, mouse; settings: for action on insulin effect on muscle (conclusion from Table 8): 100 μg/ml with insulin 0.1 μg/ml; for insulin concentration necessary to achieve the same result if insulin is used solely: relative to 0.1 μg/ml insulin used with 100 μg/ml test substance (1 μg/ml); for Glucose (concentration in supernatant after incubation): 3 days incubation, mean ± standard deviation, n=3
Protocol: Each 1.2×10^5 C2C12 cells (cell strain derived from striated muscles of mouse; Dainippon Pharmaceutical Co., Ltd.) was inoculated on a 12-well plate and incubated at 37° C. for 3 days in a CO2 incubator (5% CO2/95% air) with a DMEM medium (manufactured by Invitrogen) to which 10% fetal bovine serum (manufactured by Invitrogen) was added. When the cells became confluent, the medium was exchanged to a DMEM medium to which 2% horse serum (manufactured by Invitrogen) was added and incubation was further conducted for 4 days to differentiate to myotubes. The medium was exchanged once again with a DMEM medium to which 2% horse serum was added and further incubated for 3 days after addition of bovine insulin (manufactured by Invitrogen) so as to make its final concentration 1 μg/ml or 0.1 μg/ml, a mixture of bovine insulin and trans-4-hydroxy-L-proline methyl ester (manufactured by Kokusan Chemical Co., Ltd.; hereinafter, referred to as hydroxyproline methyl ester) so as to make their final concentrations 0.1 μg/ml and 100 μg/ml, respectively or a mixture of bovine insulin and hydroxyproline ethyl ester so as to make their final concentrations 0.1 μg/ml and 100 μg/ml, respectively. Each of the supernatant liquids after the incubation was recovered and glucose concentration was measured by a Glucose CII Test Wako (manufactured by Wako Pure Chemical Industries, Ltd.) whereby consumption of glucose of the differentiated C2C12 cells was investigated. The values are shown by mean value±standard deviation (n=3, mg/l) and statistic ratio of risk (p value) was determined by a t-test.

[7] = co-presence of 0.1 μg/ml of insulin and 100 μg/ml of test substance, vs insulin 0.1 μg/ml
[8] = test substance 100 μg/ml together with insulin 0.1 μg/ml

CCCCCCCC/C=C\CCCCCCCCOC(=O)[C@@H]1C[C@@H](OC(C)=O)CN1C(C)=O (relative stereo) [diacetylhydroxyproline oleyl ester, trans-N,O-diacetyl-4-hydroxy-L-proline oleyl ester]
antidiabetic action by improving insulin resistance (conclusion from Tables 3 and 4) [1]: show an antidiabetic action by improving the insulin resistance
Serum-Insulin Level [1]: 0.64 ± 0.12 ng/mL
antidiabetic action (conclusion from Table 3) [2]: antidiabetic action
Blood-Sugar Level, 10th Day of the Test [2]: 215.2 ± 20.3 mg/dL
Blood-Sugar Level, Initial Day of the Test [2]: 241.0 ± 11.0 mg/dL

CC(=O)N1C[C@H](O)C[C@H]1C(=O)O [N-acetylhydroxyproline, trans-N-acetyl-4-hydroxy-L-proline]
antidiabetic action (conclusion from Table 1) ([3]; 17 days): antidiabetic action
Blood-Sugar Level, 17th Day of the Test ([3]; non-fasting, tail vein blood, 17th day, mean ± standard error, n=5): 226.2 ± 12.9 mg/dL
Blood-Sugar Level, Initial Day of the Test ([3]; non-fasting, tail vein blood, initial day (baseline), mean ± standard error, n=5): 241.0 ± 15.5 mg/dL
antidiabetic action by improving insulin resistance (conclusion from Tables 1 and 2) [4]: show an antidiabetic action by improving the insulin resistance
Serum-Insulin Level ([4]; 18th day after 18 hours fasting, mean ± standard error, n=5): 0.69 ± 0.06 ng/mL
antidiabetic action (conclusion from Table 5) ([5]; glucose load): antidiabetic action
Blood-Sugar Level, 30 min ([5]; 30 minutes after glucose 2 g/kg, mean ± standard error, n=8): 407.1 ± 17.1 mg/dL
Blood-Sugar Level, −60 min ([5]; 60 minutes before glucose 2 g/kg (baseline, at dosing), mean ± standard error, n=8): 159.4 ± 5.6 mg/dL
Blood-Sugar Level, 120 min ([5]; 120 minutes after glucose 2 g/kg, mean ± standard error, n=8): 210.4 ± 14.4 mg/dL
Blood-Sugar Level, 0 min ([5]; upon glucose administration 2 g/kg, mean ± standard error, n=8): 179.9 ± 11.6 mg/dL

CCOC(=O)[C@@H]1C[C@@H](O)CN1 [hydroxyproline ethyl ester, trans-4-hydroxy-L-proline ethyl ester]
antidiabetic action by improving insulin resistance (conclusion from Tables 3 and 4) [1]: show an antidiabetic action by improving the insulin resistance
Serum-Insulin Level [1]: 0.52 ± 0.10 ng/mL
action on insulin effect on muscle (conclusion from Table 8) [6]: potentiate the action of insulin to the muscle
consumption of glucose of C2C12 cells [6, 7]: significantly increased
insulin concentration necessary to achieve the same result if insulin is used solely [6]: ten-fold
Glucose (concentration in supernatant after incubation) [6, 8]: 984 ± 29 mg/L
antidiabetic action (conclusion from Table 3) [2]: antidiabetic action
Blood-Sugar Level, 10th Day of the Test [2]: 217.2 ± 11.3 mg/dL
Blood-Sugar Level, Initial Day of the Test [2]: 253.0 ± 9.5 mg/dL

COC(=O)[C@@H]1C[C@@H](O)CN1 [hydroxyproline methyl ester, trans-4-hydroxy-L-proline methyl ester]
action on insulin effect on muscle (conclusion from Table 8) [6]: potentiate the action of insulin to the muscle
consumption of glucose of C2C12 cells [6, 7]: significantly increased
insulin concentration necessary to achieve the same result if insulin is used solely [6]: ten-fold
Glucose (concentration in supernatant after incubation) [6, 8]: 926 ± 47 mg/L

Insulin: bovine insulin (manufactured by Invitrogen) [reference compound]
consumption of glucose of C2C12 cells ([6]; addition of 0.1 μg/ml of insulin, vs nothing added): significantly promoted
Glucose (concentration in supernatant after incubation) ([6]; insulin 0.1 μg/ml alone): 1260 ± 15 *^1 mg/
Glucose (concentration in supernatant after incubation) ([6]; insulin 1 μg/ml alone): 942 ± 34 mg/L
